Source: ChEMBL document CHEMBL3507680, “University of Dundee, Gates Library screen for HepG2 cell viability”

Assay: Human HepG2 cell viability assay in 384 well format
Format: toxicity, cell-based
Set-up: dose 125 nL, time 70.5 hour; concentration not given beside the values
Settings: HepG2 cells, read-out: Inhibition

Compound	cytotoxicity at 70.5 h [%]
O=C(CCC(=O)Nc1nnc(C2CCCCC2)s1)NCC1CCCO1 (stereo not drawn)	-12.1
COC(=O)COn1c(SC(C)C)nc2ccccc2c1=O	-3.63
Cn1c2ccc(F)cc2c2ncn(CCCN(CCO)CCO)c(=O)c21	18.9
CC(C)C[C@H](NC(=O)N1CCC(Cc2ccccc2)CC1)C(=O)O	-5.66
COc1ccc(-c2nc(C#N)c(N(C)C)o2)cc1OC	-5.52
CC(C)C[C@H](NC(=O)Nc1ccc(F)c(Cl)c1)C(=O)O	6.99
CCN1C(=O)C(C#N)=C(C)/C(=C/C2=Cc3ccccc3OC2)C1=O	7.28
COC(=O)COn1c(SC)nc2ccccc2c1=O	-9.2
CCS(=O)(=O)c1nnc([C@@H](N)Cc2ccccc2)o1	16.2
CC(C)NC(=O)N(Cc1cc(O)nc2ccccc12)C(C)C	-7.39
COCCN(Cc1cc(O)nc2ccccc12)C(=O)NC(C)C	-14.7
CC(C)Cc1nc(OCC#N)c(C#N)c2c1CCC2	-2.63
COCCCN(Cc1cc(O)nc2ccccc12)C(=O)NC(C)C	-13.5
O=C(CC1NC(N2CCc3ccccc32)=NC1=O)Nc1ccc(Cl)cc1 (stereo not drawn)	-11.1
COc1ccc(-c2nc(C#N)c(N(C)C)o2)cc1S(=O)(=O)N(C)C	-11.8
O=C(CC1NC(N2CCc3ccccc32)=NC1=O)Nc1ccccc1 (stereo not drawn)	-5.06
COc1cccc(-c2nc(C)c(C(=O)N[C@H](CO)CCSC)s2)c1	-5.73
Cc1cc(C)n2c(CCCNS(=O)(=O)c3ccccc3)nnc2n1	-7.9
Cc1sc(NS(=O)(=O)c2ccccc2)nc1C(=O)NC1CC1	-1.95
Cc1cc(C)n2c(CCCNS(=O)(=O)c3ccc(F)cc3)nnc2n1	-8.75
CCc1ccc2c(C3CN(S(C)(=O)=O)C3)ncn2c1	9.29
Cc1nc(-c2cnn(C)c2)nc2c1CN(C(=O)c1cccnc1)CC2	-2.03

Compound	cytotoxicity at 70.5 h [%]
Cc1nc(-c2cnn(C)c2)nc2c1CN(C(=O)c1cccn1C)CC2	1.91
Cc1ncoc1C(=O)N1C[C@@H]2CN(CC3CC3)CCO[C@@H]2C1	10.6
Cc1cccc(S(=O)(=O)N2CCCc3c(c(=O)n(C)n3C)C2)c1	-9.39
CS(=O)(=O)N1CC(c2ncn3ccccc23)C1	-9.83
Cc1ncsc1CN1C[C@@H]2CN(Cc3cccnc3)CCO[C@@H]2C1	-5.27
c1csc(CN2CCc3nc(N4CCOCC4)nc(NC4CC4)c3C2)n1	17
COc1cccc(N2CC3(CCN(c4cc(OC)ncn4)C3)CC2=O)c1 (stereo not drawn)	7.12
C1CN(c2nc3c(c(NC4CC4)n2)CN(CC2CCOC2)CC3)CCO1 (stereo not drawn)	-9.83
COc1cc(N2CC3(CCN(S(=O)(=O)C4CC4)C3)C2)ncn1	-7.2
Cc1ccsc1C(=O)N1CCCc2c(c(=O)n(C)n2C)C1	-11
Fc1ccc2c(c1)C1(CCNCC1)CC2OCC1CC1 (stereo not drawn)	-7.69
COc1cc(N2CC3(CCN(c4ncccn4)C3)C2)ncn1	-9.27
CN1CCCCC12CCN(c1nncs1)C2 (stereo not drawn)	-9.3
Cc1cccc(CN2C[C@@H](NC(=O)C3CCC3)[C@H]3COC[C@H]32)n1	-5.38
O=C(c1cscn1)N1CCCC12CCCN(S(=O)(=O)c1ccccc1)C2 (stereo not drawn)	-2.41
CCS(=O)(=O)N1CCCC2(CCCN2C(=O)c2cscn2)C1 (stereo not drawn)	-0.54
CN(Cc1ccccc1)CC1CC2(CO1)CN(Cc1cnn(C)c1)C2 (stereo not drawn)	-6.11
O=C(NC1CC1)N1Cc2[nH]nc(COCC3CC3)c2C1	-7.86
Fc1cccnc1N1CCC2(CNCCC2(F)F)C1 (stereo not drawn)	12.5
Cn1nc(CN2CCCC2)c2c1CN(C(=O)c1ccc[nH]1)CC2	11.9
c1cnn(Cc2nnc3n2CCCN(c2nccs2)C3)c1	12.8
CN1CCN([C@@H]2CCN(C(N)=O)[C@H]2Cc2ccccc2)CC1	-0.0899

Compound	cytotoxicity at 70.5 h [%]
Cn1cncc1CN1CCC2(CC1)CCN2c1ncccn1	-2.28
CC1c2ncc(COCC3CCOCC3)n2CCN1C(=O)c1ccoc1 (stereo not drawn)	-2.87
c1cnc(N2CCCn3c(nnc3Cn3cccn3)C2)nc1	1.91
CC(=O)N1CC[C@@H](N2CCN(C)CC2)[C@@H]1Cc1ccccc1	-2.96
CCn1cc2c(n1)CN(S(=O)(=O)c1ccc(C)cc1)CC2COC (stereo not drawn)	-1.69
O=C(NC1CCc2c(ccc(=O)n2CC2CC2)C1)c1ccsc1 (stereo not drawn)	-1.91
CC(=O)N1CCC2(CC1)C(=O)N(c1cccnc1)c1ccc(F)cc12	-4.87
CCS(=O)(=O)N1C[C@@H]2COC[C@@H](Cc3nc(C)no3)[C@@H]2C1	-2.03
Cn1nc(CN2CCCCC2)c2c1CN(C(=O)Nc1cccc(F)c1)C2	11.6
CC(C)NC(=O)N1CCN(C(=O)c2ccco2)CC2(CC(=O)N(C)C2)C1 (stereo not drawn)	-23.2
C[C@H]1C[C@H]2CN(C(=O)c3ccncn3)CC[C@@H]2O1	-19.6
O=C1COC2(CCN(S(=O)(=O)C3CC3)CC2)CN1c1ccsc1	-17.5
COCC1COCCC12CCN(C(=O)CCc1ccccc1C)CC2 (stereo not drawn)	-5.26
COCC1COCCC12CCN(C(=O)COc1ccccc1C)CC2 (stereo not drawn)	-2.98
c1cnc(N2CCC3(COCc4cnc(N5CCOCC5)nc43)C2)nc1 (stereo not drawn)	-16.6
CC(C)Nc1ccc2nc(C3CCNCC3)nn2c1	9.18
O=C(C1CC1)N1CCC2(COCc3cnc(N4CCOCC4)nc32)C1 (stereo not drawn)	-12.6
Cn1nnc2c1C(COCC1CC1)CN(C(=O)Cc1cccs1)C2 (stereo not drawn)	-19.3
CN(C)C(=O)C1OC2(CCN(C(=O)N(C)C)CC2)c2ccccc21 (stereo not drawn)	-19.3
CN(C)C(=O)C1OC2(CCN(C(=O)c3ccoc3)CC2)c2ccccc21 (stereo not drawn)	-14.7
N[C@@H](Cc1ccccc1)c1nnc(S(=O)(=O)Cc2cccc(Cl)c2)o1	13.5
CCN1CCC2(CC1)OCCN2C(=O)c1cc(Cl)c(OC)c(Cl)c1	8.67

Compound	cytotoxicity at 70.5 h [%]
CC(C)N1CCC2(CC1)C(=O)N(c1cccnc1)c1c(F)cccc12	-2.98
CN(C)CCNCCC(Cc1ccccc1)C1CCOC(C)(C)C1 (stereo not drawn)	-8.7
Cc1ccc(C(CCNCCN(C)C)C2CCOC(C)(C)C2)cc1 (stereo not drawn)	-5.89
CN(C)CCCNCCC(Cc1ccccc1)C1CCOC(C)(C)C1 (stereo not drawn)	1.12
CCN1CCO[C@@H]2CN(C(=O)c3cocn3)C[C@@H]2C1	34.2
O=C(c1ccc2ccc(N3CCN(CC4CC4)CC3)n2c1)N1CCCO1	-5.05
O=C([C@H]1CCS(=O)(=O)[C@@H]2CN(CCc3ccccc3)C[C@H]12)N1CCCC1	-1.64
O=C(c1cocn1)N1C[C@@H]2CN(CC3CC3)CCO[C@@H]2C1	-1.55
CC(C)N1CCc2ncn(C)c2C1C(=O)N1CCOCC1 (stereo not drawn)	5.22
CCS(=O)(=O)N1CCC2(CC1)CC1(CCN(CCOC)CC1)C(=O)N2C	-6.01
CCN1CCCC12CCCN(c1ncccn1)C2 (stereo not drawn)	-9.5
COc1cc(N2CC3(CCN(S(C)(=O)=O)C3)C2)ncn1	-12
CN1CCCCC12CCN(c1nncs1)CC2	1.8
O=C(N[C@@H]1CN(Cc2cccs2)[C@@H]2COC[C@@H]21)C1CCC1	-4.79
CCN1C(=O)[C@H]2CN(CC(C)C)C[C@H]2C12CCN(C(=O)NC(C)C)CC2	-1.18
CC(C)CN1CCCC12CCN(c1nncs1)C2 (stereo not drawn)	-4.38
CCc1cnc(N2CCc3ncnc(N4CCN(C)CC4)c3CC2)nc1	-3.37
CCCS(=O)(=O)N1CCc2c(COCC)cncc2C1	-3.03
O=C(N1CCCO1)[C@]12COC[C@H]1CN(Cc1nccs1)C2	-7.21
Cn1ccnc1CN1CCO[C@H]2C(CNC(=O)c3ccco3)CC[C@@H]21 (stereo partly drawn)	-0.67
Cc1ncc2c(c1C(=O)O)CCN(c1ncc(F)cn1)C2	-0.54
CCN1CC2(CC1=O)CN(Cc1ccc(C)o1)CCN(C(=O)C(C)C)C2 (stereo not drawn)	-16.6

Compound	cytotoxicity at 70.5 h [%]
CN(C)C(=O)CC1CC2(CCN(Cc3ccsc3)CC2)c2ccccc21 (stereo not drawn)	-16.8
Cn1cccc1C(=O)N1C[C@@H](OCc2ccncc2)[C@@H]2OCCC[C@@H]21	-1.09
O=C(NC[C@]12COC[C@H]1CN(Cc1ccco1)C2)c1ccccc1	-14.6
Cc1cccc(CN2CC[C@@H]3[C@@H]2CCN3C(=O)c2cc(C)oc2C)n1	13.1
O=C(C[C@@H]1COC[C@H]2CN(Cc3ccc(F)cc3)C[C@@H]12)N1CCCC1	2.93
O=C(O)c1cc2c(nc1N1CCOCC1)CCN(C1CCOC1)CC2 (stereo not drawn)	-4.23
COc1ccc(CN2C[C@H]3CCC[C@@H](CN(C)C4CC4)[C@H]3C2)cn1	10.8
CO[C@@H]1CCN(S(=O)(=O)N(C)C)[C@@H]2CN(Cc3cccnc3)C[C@@H]21	-4.13
Cn1nccc1-c1ncc2c(c1C(=O)O)CCN(Cc1ccncc1)C2	-0.712
CNC(=O)CN1CCOCC12CCN(Cc1ccncc1)CC2	-16.2
Cc1cccc(CN2C(=O)CO[C@@H]3CN(Cc4cnn(C)c4)C[C@H]32)c1	4.73
O=C1COC2(CCN(Cc3cccnc3)CC2)CN1	12.3
Cc1cccc(CN2CC[C@@H]3[C@@H]2CCN3C(=O)c2ccoc2C)n1	0.304
Cc1ccc2c(n1)N(CC1CC1)CCN(C(=O)c1ccncc1F)C2	0.364
CC(C)CN1CCN(C(=O)c2ccncc2F)Cc2cccnc21	-9.62
COC1COC2(CCN(Cc3ccc4ccccc4n3)CC2)C1 (stereo not drawn)	-12.9
Fc1cccnc1O[C@@H]1CN(Cc2ccco2)[C@@H]2CCCO[C@@H]21	-12.4
COc1ccc(CN2C[C@@H]3CN(Cc4cccnc4)CCO[C@@H]3C2)cc1	-9.13
c1cc(CN2C[C@@H]3OCCN(CCN4CCCC4)[C@@H]3C2)cs1	-8.5
c1cc(CN2C[C@@H]3OCCN(CCN4CCCC4)[C@@H]3C2)ccn1	-8.99
